Source: publication PMC11434290, “Pharmacokinetics and Dose Proportionality Study of a Novel Antiparkinsonian Agent, a 1H-1,2,4-Triazol-3-ylthio-conjugate of Prottremine” (Molecules, 2024)
“Also recorded” adds a separate entry of the source. Each block holds one compound with its values, some of them ahead of it.

Tests used:
[1] = tested on: MPTP-, haloperidol-, and rotenone-induced models; settings: cited from earlier work; for Dose showing antiparkinsonian activity: various mouse and rat models (MPTP-, haloperidol-, rotenone-induced)
mice = settings: acute toxicity; cited from earlier work
[2] = Stability of PA-96 in prepared samples under different storage conditions; type: physicochemical; settings: within 7 days; +23 °C, +4 °C, −70 °C
Experimental: The stability of PA-96 in the prepared samples was investigated at different storage conditions, as mentioned in the experimental methods section.
(§1) To study the influence of the enzymes on the PA-96 stability in whole blood, mice blood spikes containing PA-96 in the concentration of 50 ng/mL were prepared. Aliquots of the spike were precipitated according to the protocol described above. Sampling was carried out at the following timepoints: 5, 10, 20, 30, 40, 50, 120, 180, and 240 min. The long-term stability of the samples was studied by the comparison of freshly prepared samples and samples prepared and kept in different conditions for 7 days. The storage conditions were the following: room temperature (+23 °C), household fridge (+4 °C), and Kelvinator (−70 °C). The acceptance criterion was a CV ≤ 15% for every day and any storing condition.

[3] = Pharmacokinetics of PA-96 after single oral (p.o.) administration to mice; type: in vivo, CD-1 mice; settings: for Tmax / bioavailability / Cmax / half-life / AUC(0-t) / Vd/F: both sexes, CD-1, mouse, whole blood; for Tmax / Cmax / half-life / AUC(0-t) / Vd/F: po; for bioavailability: oral, assessed via AUC of i.v. injection at 1 mg/kg; for Vd/F: read-out: Vz/F_obs
Experimental: After the development and validation of the method for determination of PA-96 in mice blood, a preliminary pharmacokinetic study was carried out. The agent PA-96 was administered to two mice per os as a suspension in Tween-80 at a dose of 10 mg/kg, and blood samples were taken from the animals at 0.5, 1, 1.5, 2, 2.5, 3, 3.5, 4, 5, 5.5, and 24 h after administration. Four 10 µL samples were taken at each timepoint: two were spotted onto the paper and dried, and two others were precipitated using the ZnSO4 solution. All prepared samples were analysed, and the graph representing the PA-96 peak area values was plotted (Figure 6). […] As such, the PPT method for whole blood samples was chosen for the next experiments.
After administration, blood samples were taken from the tail vein of each animal at 5, 10, 20, 30, 40, 50, 60, 75, 90, 120, and 150 min, and the samples were prepared following the PPT protocol.
(§2) The LC–MS/MS analysis was carried out using a Shimadzu LC-20AD Prominence chromatograph equipped with a cooling autosampler, binary gradient pump, and column oven (Shimadzu, Japan) coupled with a 3200 QTRAP mass spectrometer (AB SCIEX, Framingham, MA, USA) equipped with an electrospray ionisation source (ESI). The mass spectrometer worked in positive mode and multiple reaction monitoring (MRM) detection mode for quantitation. Analyst 1.6.2 software (AB SCIEX, Framingham, MA, USA) was used for instrument control and data acquisition, and MultiQuant 2.1 software (AB SCIEX, Framingham, MA, USA) was used for quantitation. To calculate the main pharmacokinetic parameters, the Microsoft Excel plugin PKSolver was used.
(§3) CD-1 mice (male and female) were obtained from the SPF vivarium of the Institute of Cytology and Genetics, Russia. The mice weighed 25–30 g at the beginning of the experiment.
An accurately weighed amount of PA-96 was mechanically mixed with Tween-80 using a mortar and pestle followed by suspending the obtained sample in physiological solution. The animals (n = 2) received a single dose of 10 mg/kg per os (p.o.). The timepoints were 0.5, 1, 1.5, 2, 2.5, 3, 3.5, 4, 5, 5.5, and 24 h. At each timepoint, 10 µL of blood was taken from the tail vein, and the sample was prepared by DBS and PPT with ZnSO4 in methanol. Afterwards, the samples were analysed in accordance with the HPLC–MS/MS protocol.
In the next experiment, the sampling scheme was optimised by changing the timepoints as follows: 5, 10, 20, 30, 40, 50, 60, 75, and 90 min, and 2, 2.5, 3, 3.5, 4, and 5 h; this was in order to investigate the pharmacokinetics more thoroughly. The experiment design was not changed, but the sample preparation was carried out by the PPT method exclusively.
(§4) In order to investigate the bioavailability and dose proportionality, PA-96 was administered p.o. at the dosages of 1, 5, and 10 mg/kg and intravenously (i.v.) at the dosages of 1 and 10 mg/kg. For each experiment, we used 6–7 mice. The blood was drawn from the tail vein at the following timepoints: 3, 5, 10, 15, 30, 45, 60, 90, 120, and 150 min. The samples were prepared and analysed.

[4] = Stability of PA-96 in whole mouse blood; type: in vitro ADME, mice; settings: spike 50 ng/mL, 5-240 min
Source text: A crucial factor to consider is the stability of the compound in biological matrices. Both whole blood and plasma may contain enzymes able to metabolise the substance, and the metabolism rate can be relatively high. This can result in a rapid decrease in the substance concentration and an incorrect calibration curve. Additionally, if blood samples from experimental animals are dried as spots, metabolism during drying may lead to incorrect analyte concentrations. Considering these factors, we investigated the stability of the agent PA-96 in whole mouse blood.
as §1

[5] = Pharmacokinetics of PA-96 after double p.o. administration to mice; type: in vivo, CD-1 mice; settings: for AUC(0-t) / Cmax / half-life / Vd/F: 5 mg/kg; for Vd/F: read-out: Vz/F_obs
Experimental: In our work, an experiment with double administration of the agent PA-96 was carried out. The substance was administered to mice (n = 6) two times at doses of 5 mg/kg within the interval of 4 h as a formulation in Tween-80. After the first administration, blood was collected from the tail vein of each animal at 5, 10, 20, 30, 40, 50, 60, 75, and 90 min, and 2, 2.5, 3, 3.5, and 4 h. After the administration of the second dose, blood was collected at the same timepoints, and all samples were prepared following the PPT protocol.
as §2, §3
To investigate the pharmacokinetics of PA-96 in a multiple dosing regimen, the dosage form was prepared as described above, but only half was administered to the animals (n = 6). The first portion, corresponding to a dose of 5 mg/kg, was administered to the mice followed by blood sampling at 5, 10, 20, 30, 40, 50, 60, 75, and 90 min, and 2, 2.5, 3, 3.5, and 4 h after administration. At the latter timepoint, the second dose was administered, and the blood was sampled at the same timepoints as listed above.

[6] = tested on: cultured naïve dopamine neurons; parameters: method as in PMID 36500381; settings: in vitro; cited from earlier work
[7] = Pharmacokinetics of PA-96 after intravenous (i.v.) injection to mice; type: in vivo, CD-1 mice; settings: for AUC(0-t) / Cmax / Tmax / half-life: both sexes, CD-1, mouse, whole blood, iv
Experimental: To evaluate the bioavailability of the agent PA-96, a suspension of the compound with Tween-80 was administered intravenously at doses of 1 and 10 mg/kg. After administration, blood in an amount of approximately 10 µL was collected from the tail vein of each animal at 5, 10, 15, 30, 45, 60, 90, 120, and 150 min, and samples were prepared following the PPT protocol.
Therefore, it was necessary to widen the operating concentration range of the calibration curve. To quantify PA-96 in these blood samples, we prepared and analysed spikes containing the agent in concentrations of 530, 1325, 2650, 3530, 8800, 10,600, and 21,200 ng/mL, which were used to construct a high-concentration calibration curve. In addition to these calibrators, quality control samples were prepared containing PA-96 at the concentrations of 1760, 5300, and 17,100 ng/mL (QCL, QCM, and QCH, respectively). […] As the objective of building this calibration curve was to evaluate the concentration of PA-96 only in several samples, the full validation of this expansion of the developed bioanalytical method was not performed.
as §2, §3
as §4, with “For each experiment, we used 6–7 mice.” left out

[8] = 5 mg/kg, single p.o., mice, mean ± SEM, n = 4
[9] = 10 mg/kg, single p.o., mice, mean ± SEM, n = 4
[10] = single p.o., 5 mg/kg, mice, mean ± SEM, n = 4
[11] = single p.o., 10 mg/kg, mice, mean ± SEM, n = 4
[12] = both sexes, CD-1, mouse, whole blood, po, double p.o. 2×5 mg/kg, 1st administration, mean ± SEM, n = 6
[13] = both sexes, CD-1, mouse, whole blood, po, double p.o. 2×5 mg/kg, 2nd administration, mean ± SEM, n = 6
[14] = animal MPTP and haloperidol models of PD

Structure (SMILES): C=C(C)[C@@H]1CC=C(C)[C@@H](O)[C@@H]1O [Prottremine, (1R,2R,6S)-3-methyl-6-(prop-1-en-2-yl)cyclohex-3-ene-1,2-diol]
- Dose showing antiparkinsonian activity [1]: 20 mg/kg
- LD50 (mice): 4250 mg/kg

- Change of PA-96 concentration in prepared samples [2]: ≤ 11%
- Tmax ([3]; single p.o., 5 mg/kg, mice, mean ± SEM, n = 4, read-out: Tmax (converted)): 6.3 min
- Tmax ([3]; single p.o., 10 mg/kg, mice, mean ± SEM, n = 4, read-out: Tmax (converted)): 8.8 min
- bioavailability ([3]; p.o. 5 mg/kg, mice): ~7%
- bioavailability ([3]; p.o. 10 mg/kg, mice): ~35%
- Cmax [3, 8]: ~36 ng/mL
- half-life [3, 8]: 44 ± 13 min
- Cmax [3, 9]: ~588 ng/mL
- half-life [3, 9]: 15 min
- Tmax ([3]; p.o. doses of 5 mg/kg and 10 mg/kg, mice, read-out: Time of maximum concentration after administration): 5 to 10 min
- AUC(0-t) [3, 10]: 28.3 ng·h/mL
- Vd/F [3, 10]: 190 L/kg
- AUC(0-t) [3, 11]: 300 ng·h/mL
- Vd/F [3, 11]: 13.7 L/kg
- Signal (concentration) in blood samples ([3]; p.o. 1 mg/kg, n = 2, mice, LLOQ 25 ng/mL): lower than the LLOQ
- Time of complete elimination at oral administration ([3]; p.o. 5 and 10 mg/kg, mice): 2.5 to 3 h
- Increase in both Cmax and AUC on twofold increase in the dose ([3]; p.o. 5 vs 10 mg/kg, mice): by an order of magnitude
- Time of complete elimination ([3]; preliminary study, p.o. 10 mg/kg, n = 2 mice): 2.5 h
- Timepoint of maximum concentration ([3]; preliminary study, p.o. 10 mg/kg, n = 2 mice, first timepoint sampled): 30 min
- t1/2 [3, 11]: 15.2 ± 1.2 min
- AUC(0-t) [5, 12]: 25 ng·h/mL
- Cmax [5, 12]: 60 ± 15 ng/mL
- half-life [5, 12]: 21 ± 4 min
- Vd/F [5, 12]: 108 ± 25 L/kg
- AUC(0-t) [5, 13]: 135 ng·h/mL
- Cmax [5, 13]: 58 ± 13 ng/mL
- half-life [5, 13]: 19 ± 3 min
- Vd/F [5, 13]: 25 ± 4 L/kg
- Tmax ([5]; both sexes, CD-1, mouse, whole blood, po, double p.o. 2×5 mg/kg, interval 4 h, 1st administration, mean ± SEM, n = 6): 10 min
- Accumulation after double administration (Cmax, AUC0-∞) ([5]; double p.o. 2×5 mg/kg, interval 4 h, mice): absence of its accumulation
- Time to full elimination after administration ([5]; p.o. 5 mg/kg, double administration experiment, mice): 4 h
- AUC(0-t) ([7]; 1 mg/kg, mean ± SEM, n = 6): 85 ng·h/mL
- Cmax ([7]; 1 mg/kg, mean ± SEM, n = 6): 390 ng/mL
- Tmax ([7]; 1 mg/kg, mean ± SEM, n = 6): 3.3 min
- half-life ([7]; 1 mg/kg, mean ± SEM, n = 6): 37 ± 10 min
- AUC(0-t) ([7]; 10 mg/kg, mean ± SEM, n = 2): 2170 ng·h/mL
- Cmax ([7]; 10 mg/kg, mean ± SEM, n = 2): > 7700 ng/mL
- half-life ([7]; 10 mg/kg, mean ± SEM, n = 2): 26.1 ± 2.9 min
- Tmax ([7]; 10 mg/kg, n = 2): 3 min
- Concentration level 1 h after administration ([7]; i.v. 1 and 10 mg/kg): several nanograms per mL
- Time in which concentration decreases twofold after injection ([7]; i.v. 1 and 10 mg/kg): 10 to 15 min
- Increase of AUC when the dose was increased tenfold ([7]; i.v. 1 vs 10 mg/kg): approximately 25 times
- Increase of Cmax when the dose was increased tenfold ([7]; i.v. 1 vs 10 mg/kg): twentyfold
Structure (SMILES): C=C(C)[C@@H]1CC=C(C)[C@@H](Sc2nc[nH]n2)[C@@H]1O [PA-96]
- PA-96 concentration in whole mouse blood during stability investigation [4]: consistent within the accuracy of analysis error
- Survival of cultured naïve dopamine neurons [6]: supported the survival; also recorded: improved potency
- Effect on motor deficits ([1]; MPTP and haloperidol-based mice models of Parkinson's disease): alleviated motor deficits
- Density of tyrosine hydroxylase positive neurons and dopamine concentration in the midbrain ([1]; MPTP-damaged brain): increased
- Antiparkinsonian activity relative to Prottremine [1, 14]: more active than Prottremine
- Dose at which antiparkinsonian effect was displayed [1, 14]: 1 mg/kg

Structure (SMILES): N[C@@H](Cc1ccc(O)c(O)c1)C(=O)O [L-DOPA, reference compound]
- Dose showing antiparkinsonian activity [1]: 50 to 100 mg/kg
